Test results as given in US20220370385A1, “COMPOSITIONS FOR USE IN INHIBITING SRC KINASE AND TREATING AND PREVENTING ASSOCIATED DISORDERS” (Enzene Biosciences Ltd., priority 2019, published 2022).

System: MDA-MB-468 cells
Experiment: MDA-MB-468 cell viability, CellTiter-Glo, 24 hrs
Assay type: cell-based, human
Conditions: Homo sapiens, 24 hrs incubation
Experimental: MDA-MB-468 cells, isolated from a pleural effusion of a patient with metastatic adenocarcinoma of the breast, is a triple negative breast cancer (TNBC) cell line. The IC 50 value of E05 or lapatinib (Sigma) or the structural analogues of E05 were tested in this cell line.
Briefly, MDA-MB-468 cells (ATCC #HTB-32) were seeded with a density of 5,000 cells per well in a 96 well white plate (Costar Cat #3917) in DMEM media supplemented with 10% FBS (assay medium). The plates were incubated at 37° C., 5% CO2 for 24 hr. E05 and analogues were diluted in the assay medium and added to the respective wells of the assay plate. The plates were further incubated at 37° C., 5% CO2 for 24 hrs. After the incubation, the cell viability was assessed using CellTiter-Glo® and the plates were read for luminescence using Cytation 5 (Biotek). The relative luminescence unit (RLU) obtained was plotted against the concentration and EC50 values were estimated using Graphpad Prism 5 software (FIG. 15 and Table 2).

Question: `O=C(O)/C=C/c1ccc(O)c(O)c1` [E05_A] was tested. Which EC50 did it give?
Answer: 122 µM
